From US12202835B2, “Substituted aromatic ring-linked dioxinoquinazolines and dioxinoquinolines as kinase inhibitors” (BEIJING SCITECH-MQ PHARMACEUTICALS LIMITED, priority 2018, dated 2025) come the findings set out here.

One experiment addresses TRKA kinase (Homo sapiens (Human), UniProt P04629). Nature of the experiment: Assay of small molecular compounds for inhibiting the activity of TRKA kinase (LANCE TR-FRET). Format: biochemical. A digest of the protocol: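 LANCE TR-FRET with ULight-TK peptide; compounds pre-incubated 5 min with TRKA (2× solution 2 nM), then substrate/ATP added (4× mix: 400 nM peptide, 40 μM ATP). Reaction 60 min at room temperature in dark, 1% DMSO final; stopped, detection developed 60 min, signal read.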
(In general: TR-FRET usually uses a lanthanide donor and a delayed reading to cut background.)

A further experiment addresses c-MET kinase (Homo sapiens (Human), UniProt P08581). Nature of the experiment: Assay of small molecular compounds for inhibiting the activity of c-MET kinase (LANCE TR-FRET). Type of experiment: biochemical. Particulars: read-out: CMET IC50. A digest of the protocol:
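LANCE TR-FRET assay with c-MET at 1 nM final after a 5 min room-temperature preincubation with compound (11-point, 3-fold series, 2500–0.042 nM final, 4% DMSO). ULight-JAK-1 (Tyr1023) peptide (100 nM final) and ATP (10 μM final) reacted 60 min in the dark. Inhibition was taken relative to controls, then IC50 fitted.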

In the next experiment the test system is Ba/F3-AXL cells. Kind of experiment: Assay for inhibiting the proliferation of Ba/F3-AXL cells (CCK-8). Particulars: 72 hours of incubation, medium with 100 ng/mL hGas6, CCK-8. Format: cell-based. The method, then:
The values were then imported into Graphpad Prism 5 software for curve fitting, and IC50 was calculated.

Another experiment deals with EBC1 cells. Kind of experiment: Assay for inhibiting the proliferation of EBC1 cells (CCK-8). Format: cell-based. Particulars: Homo sapiens, EBC-1. A digest of the protocol: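 Cells seeded in 96-well plates overnight, then exposed 72 h to 9 three-fold dilutions of compound (0.25% DMSO final). Viability by CCK-8 (1-2 h at 37° C., OD 450 nm), survival normalized to untreated and cell-free blanks; IC50 by curve fitting.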

SMILES strings stand for the structures. pIC50: −log10 of the molar value. Some results are limits rather than exact numbers.

Sequence of TRKA kinase (P04629 33-796): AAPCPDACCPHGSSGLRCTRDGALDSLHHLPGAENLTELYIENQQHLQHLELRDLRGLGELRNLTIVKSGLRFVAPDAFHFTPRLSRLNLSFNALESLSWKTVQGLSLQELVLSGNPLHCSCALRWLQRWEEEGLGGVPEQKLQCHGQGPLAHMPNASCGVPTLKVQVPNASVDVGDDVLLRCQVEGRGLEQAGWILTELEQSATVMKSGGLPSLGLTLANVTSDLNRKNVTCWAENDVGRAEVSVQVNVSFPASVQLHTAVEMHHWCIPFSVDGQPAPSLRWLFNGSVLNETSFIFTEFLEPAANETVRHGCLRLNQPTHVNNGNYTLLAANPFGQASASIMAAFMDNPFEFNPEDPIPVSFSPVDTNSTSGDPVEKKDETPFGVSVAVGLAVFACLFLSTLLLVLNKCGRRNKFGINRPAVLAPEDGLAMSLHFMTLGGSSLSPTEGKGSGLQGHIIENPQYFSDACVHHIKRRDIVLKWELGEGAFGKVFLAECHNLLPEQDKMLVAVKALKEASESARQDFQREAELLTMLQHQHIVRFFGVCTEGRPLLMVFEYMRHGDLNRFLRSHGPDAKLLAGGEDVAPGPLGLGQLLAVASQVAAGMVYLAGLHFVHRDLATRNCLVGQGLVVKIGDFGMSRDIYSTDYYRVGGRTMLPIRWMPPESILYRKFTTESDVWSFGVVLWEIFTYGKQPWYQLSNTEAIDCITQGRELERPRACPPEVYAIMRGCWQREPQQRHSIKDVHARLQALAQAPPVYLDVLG
Sequence of c-MET kinase (P08581 25-1390): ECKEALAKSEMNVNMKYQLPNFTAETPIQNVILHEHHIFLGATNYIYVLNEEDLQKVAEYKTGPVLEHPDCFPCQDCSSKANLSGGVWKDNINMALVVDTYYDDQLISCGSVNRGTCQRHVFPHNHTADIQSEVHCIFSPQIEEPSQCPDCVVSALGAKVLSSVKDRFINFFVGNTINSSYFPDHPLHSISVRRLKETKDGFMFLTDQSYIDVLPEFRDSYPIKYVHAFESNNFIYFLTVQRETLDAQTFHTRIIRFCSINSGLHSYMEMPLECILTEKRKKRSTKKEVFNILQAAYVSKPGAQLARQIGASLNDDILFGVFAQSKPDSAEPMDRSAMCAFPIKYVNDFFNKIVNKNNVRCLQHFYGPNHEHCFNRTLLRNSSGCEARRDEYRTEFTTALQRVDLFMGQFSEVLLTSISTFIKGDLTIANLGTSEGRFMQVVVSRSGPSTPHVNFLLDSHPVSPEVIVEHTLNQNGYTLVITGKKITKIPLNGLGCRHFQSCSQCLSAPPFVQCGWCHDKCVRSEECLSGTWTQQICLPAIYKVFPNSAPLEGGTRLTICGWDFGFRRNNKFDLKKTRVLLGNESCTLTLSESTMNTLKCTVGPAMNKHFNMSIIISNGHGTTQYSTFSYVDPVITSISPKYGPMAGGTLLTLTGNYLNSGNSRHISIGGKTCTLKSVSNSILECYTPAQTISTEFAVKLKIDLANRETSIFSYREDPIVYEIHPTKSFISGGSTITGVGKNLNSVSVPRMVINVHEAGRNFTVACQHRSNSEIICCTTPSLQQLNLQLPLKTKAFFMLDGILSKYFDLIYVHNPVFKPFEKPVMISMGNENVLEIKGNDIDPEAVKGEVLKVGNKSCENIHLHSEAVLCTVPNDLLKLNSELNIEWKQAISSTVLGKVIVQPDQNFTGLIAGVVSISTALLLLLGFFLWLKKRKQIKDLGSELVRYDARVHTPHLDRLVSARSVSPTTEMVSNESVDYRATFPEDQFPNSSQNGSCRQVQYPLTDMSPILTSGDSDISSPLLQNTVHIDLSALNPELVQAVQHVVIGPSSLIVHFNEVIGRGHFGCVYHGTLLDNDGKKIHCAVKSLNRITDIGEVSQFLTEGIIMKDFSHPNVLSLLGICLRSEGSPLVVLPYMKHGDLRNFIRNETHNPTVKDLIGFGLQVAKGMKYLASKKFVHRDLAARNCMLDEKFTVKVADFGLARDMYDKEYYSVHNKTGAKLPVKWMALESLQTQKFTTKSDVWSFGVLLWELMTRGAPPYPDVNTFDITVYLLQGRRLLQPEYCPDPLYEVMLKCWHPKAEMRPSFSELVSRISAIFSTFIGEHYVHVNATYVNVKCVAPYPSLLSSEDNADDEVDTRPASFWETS

Consider `CCOc1ccn(-c2ccc(F)cc2)c(=O)c1C(=O)Nc1ccc(Oc2ccnc3cc(OCCCN(C)CCOC)c4c(c23)OCCO4)c(F)c1` [Example 70, N-(4-((5-(3-((2-methoxyethyl)(methyl)amino)propoxy)-2,3-dihydro-[1,4]dioxino[2,3-f]quinolin-10-yl)oxy)-3-fluorophenyl)-4-ethoxy-1-(4-fluorophenyl)-2-oxo-1,2-dihydropyridine-3-carboxamide], for which the pIC50 (usually the negative decadic logarithm of the IC50, by convention in mol/L) is over 7.30 against TRKA kinase, at least 7.30 at c-MET kinase, over 7.30 in the experiment on Ba/F3-AXL cells and at least 7.30 in the experiment with EBC1 cells.

Regarding `CCOc1ccn(-c2ccc(F)cc2)c(=O)c1C(=O)Nc1ccc(Oc2ccnc3cc(OCCO)c4c(c23)OCCO4)c(F)c1` [Example 53, N-(4-((5-(2-hydroxyethoxy)-2,3-dihydro-[1,4]dioxino[2,3-f]quinolin-10-yl)oxy)-3-fluorophenyl)-4-ethoxy-1-(4-fluorophenyl)-2-oxo-1,2-dihydropyridine-3-carboxamide], the pIC50 is over 7.30 on TRKA kinase, at least 7.30 at c-MET kinase, over 7.30 in the experiment on Ba/F3-AXL cells and at least 7.30 with EBC1 cells.

Take `CCOc1ccn(-c2ccc(F)cc2)c(=O)c1C(=O)Nc1ccc(Oc2ccnc3cc(OCCCN4CCC(C)(C)CC4)c4c(c23)OCCO4)c(F)c1` [Example 67, N-(4-((5-(3-(4,4-dimethylpiperidin-1-yl)propoxy)-2,3-dihydro-[1,4]dioxino[2,3-f]quinolin-10-yl)oxy)-3-fluorophenyl)-4-ethoxy-1-(4-fluorophenyl)-2-oxo-1,2-dihydropyridine-3-carboxamide]: the pIC50 against TRKA kinase is over 7.30; on c-MET kinase, at least 7.30; in the experiment on Ba/F3-AXL cells, over 7.30; in the experiment with EBC1 cells, at least 7.30.

On to `CCOc1ccn(-c2ccc(F)cc2)c(=O)c1C(=O)Nc1ccc(Oc2ccnc3cc(OCCCN4CCC(C)(N)CC4)c4c(c23)OCCO4)c(F)c1` [Example 68, N-(4-((5-(3-(4-amino-4-methylpiperidin-1-yl)propoxy)-2,3-dihydro-[1,4]dioxino[2,3-f]quinolin-10-yl)oxy)-3-fluorophenyl)-4-ethoxy-1-(4-fluorophenyl)-2-oxo-1,2-dihydropyridine-3-carboxamide], for which the pIC50 against TRKA kinase was over 7.30; at c-MET kinase, at least 7.30; in the experiment with Ba/F3-AXL cells, over 7.30; in the experiment on EBC1 cells it was at least 7.30.

Turning to `CCOc1ccn(-c2ccc(F)cc2)c(=O)c1C(=O)Nc1ccc(Oc2ccnc3cc(OC(C)C)c4c(c23)OCCO4)c(F)c1` [Example 63, N-(4-((5-isopropoxy-2,3-dihydro-[1,4]dioxino[2,3-f]quinolin-10-yl)oxy)-3-fluorophenyl)-4-ethoxy-1-(4-fluorophenyl)-2-oxo-1,2-dihydropyridine-3-carboxamide], the pIC50 is 6.30 to 7.30 against TRKA kinase, at least 7.30 at c-MET kinase, over 7.30 with Ba/F3-AXL cells and at least 7.30 in the experiment with EBC1 cells.

Regarding `CCOc1ccn(-c2ccc(F)cc2)c(=O)c1C(=O)Nc1ccc(Oc2ccnc3cc(OC4CCOCC4)c4c(c23)OCCO4)c(F)c1` [Example 66, N-(4-((5-((tetrahydropyran-4-yl)oxy)-2,3-dihydro-[1,4]dioxino[2,3-f]quinolin-10-yl)oxy)-3-fluorophenyl)-4-ethoxy-1-(4-fluorophenyl)-2-oxo-1,2-dihydropyridine-3-carboxamide], the pIC50 against TRKA kinase is over 7.30; on c-MET kinase, at least 7.30; with Ba/F3-AXL cells, over 7.30; in the experiment on EBC1 cells it was at least 7.30.

In the case of `CCn1cc(C(=O)Nc2ccc(Oc3ccnc4cc(OCCOC)c5c(c34)OCCO5)c(F)c2)c(=O)n(-c2ccc(F)cc2)c1=O` [Example 44, N-(3-fluoro-4-((5-(2-methoxyethoxy)-2,3-dihydro-[1,4]dioxino[2,3-f]quinolin-10-yl)oxy)phenyl)-3-(4-fluorophenyl)-1-ethyl-2,4-dioxo-1,2,3,4-tetrahydropyrimidine-5-carboxamide], the pIC50 was over 7.30 against TRKA kinase, at least 7.30 on c-MET kinase, over 7.30 in the experiment on Ba/F3-AXL cells and at least 7.30 in the experiment with EBC1 cells.

Turning to `CCOc1ccn(-c2ccc(F)cc2)c(=O)c1C(=O)Nc1ccc(Oc2ccnc3cc(OCCCN4CCS(=O)(=O)CC4)c4c(c23)OCCO4)c(F)c1` [Example 51, N-(4-((5-(3-(1,1-dioxidothiomorpholino)propoxy)-2,3-dihydro-[1,4]dioxino[2,3-f]quinolin-1 0-yl)oxy)-3-fluorophenyl)-4-ethoxy-1-(4-fluorophenyl)-2-oxo-1,2-dihydropyridine-3-carboxamide], the negative-log IC50 (pIC50) against TRKA kinase was over 7.30; at c-MET kinase, at least 7.30; in the experiment on Ba/F3-AXL cells it was over 7.30; in the experiment with EBC1 cells, at least 7.30.

Consider `CCOc1ccn(-c2ccc(F)cc2)c(=O)c1C(=O)Nc1ccc(Oc2ccnc3cc(OCCCN4CCOCC4)c4c(c23)OCCO4)cc1Cl` [Example 73, N-(2-chloro-4-((5-(3-morpholinopropoxy)-2,3-dihydro-[1,4]dioxino[2,3-f]quinolin-10-yl)oxy)phenyl)-4-ethoxy-1-(4-fluorophenyl)-2-oxo-1,2-dihydropyridine-3-carboxamide], for which the pIC50 against TRKA kinase was over 7.30; at c-MET kinase it was at least 7.30; in the experiment on Ba/F3-AXL cells, over 7.30; in the experiment with EBC1 cells, at least 7.30.

On to `COCCCOc1cc2nccc(Oc3ccc(NC(=O)c4cn(C)c(=O)n(-c5ccc(F)cc5)c4=O)cc3F)c2c2c1OCCO2` [Example 80, N-(3-fluoro-4-((5-(3-methoxypropoxy)-2,3-dihydro-[1,4]dioxino[2,3-f]quinolin-10-yl)oxy)phenyl)-3-(4-fluorophenyl)-1-methyl-2,4-dioxo-1,2,3,4-tetrahydropyrimidine-5-carboxamide], for which the pIC50 on TRKA kinase was over 7.30; on c-MET kinase, at least 7.30; in the experiment with Ba/F3-AXL cells it was over 7.30; in the experiment with EBC1 cells it was at least 7.30.

`COc1cc2ncnc(Oc3ccc(NC(=O)c4c(OC)ccn(-c5ccc(F)cc5)c4=O)cc3F)c2c2c1OCCO2` [Example 2, N-(3-fluoro-4-((5-methoxy-2,3-dihydro-[1,4]dioxino[2,3-f]quinazolin-10-yl)oxy)phenyl)-1-(4-fluorophenyl)-4-methoxy-2-oxo-1,2-dihydropyridine-3-carboxamide]: the pIC50 at TRKA kinase is over 7.30; on c-MET kinase, at least 7.30; with Ba/F3-AXL cells, over 7.30; with EBC1 cells it was 6.70 to 7.30.

Regarding `COc1cc2nccc(Oc3ccc(NC(=O)c4cn(CCO)c(=O)n(-c5ccc(F)cc5)c4=O)cc3F)c2c2c1OCCO2` [Example 45, N-(3-fluoro-4-((5-methoxy-2,3-dihydro-[1,4]dioxino[2,3-f]quinolin-10-yl)oxy)phenyl)-3-(4-fluorophenyl)-1-(2-hydroxyethyl)-2,4-dioxo-1,2,3,4-tetrahydropyrimidine-5-carboxamide], the pIC50 was 6.30 to 7.30 at TRKA kinase, at least 7.30 on c-MET kinase, over 7.30 in the experiment on Ba/F3-AXL cells and 6.70 to 7.30 in the experiment with EBC1 cells.

For the compound `CCOc1ccn(-c2ccc(F)cc2)c(=O)c1C(=O)Nc1ccc(Oc2ccnc3cc(OCCCN4CCOCC4)c4c(c23)OCCO4)c(Cl)c1` [Example 72, N-(4-((5-(3-morpholinopropoxy)-2,3-dihydro-[1,4]dioxino[2,3-f]quinolin-10-yl)oxy)-3-chlorophenyl)-4-ethoxy-1-(4-fluorophenyl)-2-oxo-1,2-dihydropyridine-3-carboxamide], the pIC50 at TRKA kinase is over 7.30; at c-MET kinase, at least 7.30; in the experiment on Ba/F3-AXL cells, over 7.30; in the experiment with EBC1 cells, at least 7.30.

With `CCOc1ccn(-c2ccc(F)cc2)c(=O)c1C(=O)Nc1ccc(Oc2ccnc3cc(OCCCN4CCN(C)CC4)c4c(c23)OCCO4)c(F)c1` [Example 49, N-(3-fluoro-4-((5-(3-(4-methylpiperazin-1-yl)propoxy)-2,3-dihydro-[1,4]dioxino[2,3-f]quinolin-10-yl)oxy)phenyl)-1-(4-fluorophenyl)-4-ethoxy-2-oxo-1,2-dihydropyridine-3-carboxamide], the pIC50 is over 7.30 against TRKA kinase, at least 7.30 on c-MET kinase, over 7.30 with Ba/F3-AXL cells and at least 7.30 in the experiment with EBC1 cells.

For the compound `CCOc1ccn(-c2ccc(F)cc2)c(=O)c1C(=O)Nc1ccc(Oc2ccnc3cc(OC4CCOC4)c4c(c23)OCCO4)c(F)c1` (stereo not shown) [Example 65, N-(4-((5-((tetrahydrofuran-3-yl)oxy)-2,3-dihydro-[1,4]dioxino[2,3-f]quinolin-10-yl)oxy)-3-fluorophenyl)-4-ethoxy-1-(4-fluorophenyl)-2-oxo-1,2-dihydropyridine-3-carboxamide], the pIC50 at TRKA kinase is over 7.30; on c-MET kinase, at least 7.30; with Ba/F3-AXL cells it was over 7.30; in the experiment on EBC1 cells, at least 7.30.

As for `COCCn1cc(C(=O)Nc2ccc(Oc3ccnc4cc(OC)c5c(c34)OCCO5)c(F)c2)c(=O)n(-c2ccc(F)cc2)c1=O` [Example 46, N-(3-fluoro-4-((5-methoxy-2,3-dihydro-[1,4]dioxino[2,3-f]quinolin-10-yl)oxy)phenyl)-3-(4-fluorophenyl)-1-(2-methoxyethyl)-2,4-dioxo-1,2,3,4-tetrahydropyrimidine-5-carboxamide], the pIC50 on TRKA kinase was 6.30 to 7.30; at c-MET kinase, at least 7.30; in the experiment with Ba/F3-AXL cells, over 7.30; in the experiment on EBC1 cells, at least 7.30.
